Test results reported in patent US8580833B2, “Substituted imidazole derivatives and methods of use thereof” (TransTech Pharma, Inc., priority 2009, dated 2013).
Structures can show the parent of a compound that is named as a salt. Where two headings read alike, the source gives them in different places.

Legend:
[1] = target: T1, RAGE (sRAGE) with S100b as the RAGE ligand (Homo sapiens, UniProt Q15109); test: ELISA: inhibition of sRAGE binding to plate-bound S100b; conditions: sRAGE 6 nM, hydrochloride salt form
T1 construct: generate soluble RAGE (sRAGE) comprised of the V and C domains
T1 sequence (Q15109 23-342 limits assumed): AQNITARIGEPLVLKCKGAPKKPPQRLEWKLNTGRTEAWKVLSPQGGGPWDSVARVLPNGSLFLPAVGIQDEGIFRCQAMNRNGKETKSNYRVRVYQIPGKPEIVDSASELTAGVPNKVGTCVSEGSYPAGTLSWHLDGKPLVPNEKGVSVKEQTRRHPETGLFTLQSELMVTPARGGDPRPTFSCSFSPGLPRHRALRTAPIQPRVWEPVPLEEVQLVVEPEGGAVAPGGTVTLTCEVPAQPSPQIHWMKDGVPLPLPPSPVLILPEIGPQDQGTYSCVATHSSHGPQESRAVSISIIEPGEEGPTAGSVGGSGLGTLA
Method: (§1) The following assay method may be used to identify compounds of Formula (I) or pharmaceutically acceptable salts thereof which are useful as inhibitors of binding of physiological RAGE ligands, such as S100b and β-amyloid, to RAGE.
(§2) S100b, β-amyloid, or CML (500 ng/100 μL/well) in 100 mM sodium bicarbonate/sodium carbonate buffer (pH 9.8) is loaded onto the wells of a NUNC Maxisorp flat bottom 96-well microtitre plate. The plate is incubated at 4° C. overnight. The wells are aspirated and treated with 50 mM imidazole buffer saline (pH 7.2) (with 5 mM CaCl2/MgCl2) containing 1% bovine serum albumin (BSA) (300 μL/well) for 1 h at RT. The wells are aspirated.
(§3) Test compounds are dissolved in nanopure water (concentration: 10-100 μM). DMSO may be used as co-solvent. 25 μL of test compound solution in 4% DMSO is added, along with 75 μL sRAGE (6 nM FAC) to each well and samples are incubated for 1 h at 37° C. The wells are washed several times with 155 mM NaCl pH 7.2 buffer saline and are soaked for several seconds between each wash.
(§4) Non-radioactive detection is performed by adding:
(§5) 10 μL Biotinylated goat F(ab′)2 Anti-mouse IgG. (8.0×10-4 mg/mL, FAC), 5 μL Alk-phos-Streptavidin (3×10-3 mg/mL FAC), 0.42 μL per 5 mL Monoclonal antibody for sRAGE (FAC 6.0×10-3 mg/mL) to 5 mL 50 mM imidazole buffer saline (pH 7.2) containing 0.2% bovine serum albumin and 5 mM CaCl2. The mixture is incubated for 30 minutes at RT.
(§6) 100 μL of complex is added to each well and incubation is allowed to proceed at rt for 1 h. Wells are washed several times with wash buffer and soaked several seconds between each wash. 100 μL 1 mg/mL (pNPP) in 1 M diethanolamine (pH adjusted to 9.8 with HCl) is added. Color is allowed to develop in the dark for 30 min to 1 h at rt. The reaction is quenched with 10 μL of stop solution (0.5-1.0 N NaOH in 50% ethanol) and the absorbance is measured spectrophotometrically with a microplate reader at 405 nm.
(§7) IC50 (μM) of in the ELISA assay represents the concentration of compound at which 50% signal has been inhibited.

[2] = target: T2, RAGE (sRAGE) with β-amyloid as the RAGE ligand (Homo sapiens, UniProt Q15109); test: ELISA: inhibition of sRAGE binding to plate-bound β-amyloid; conditions: sRAGE 6 nM, hydrochloride salt form
T2 construct: generate soluble RAGE (sRAGE) comprised of the V and C domains
T2 sequence (Q15109 23-342 limits assumed): as above
Method: as §1, §2, §3, §4, §5, §6, §7

[3] = Pharmacokinetic screening in rats, brain and plasma concentrations at 6 hour time point; assay type: in vivo; conditions: male, Sprague Dawley, rat, 5 mg/kg oral (PO), 6 hour time point; for concentration at 6 h: 2% Tween 80 in distilled water; for Kp at 6 h: brain/plasma ratio, read-out: B/P Ratio
Method: Pharmacokinetic screening in rats was performed on various compounds to measure brain and plasma concentrations at 6 hour time point.
The parameters for the pharmacokinetic protocol were as follows.
Amount of compound: 5 mg/kg
Species: Rat; Strain: Sprague Dawley; Sex: Male
Average body weight at dose: weight ranged from 271 to 423 grams
Average age at dose: age ranged from 9 to 14 weeks
Diet Status Overnight fasting
Number of Animals (n) for each time point: 2
Formulation: 2% Tween 80 in distilled water
Each formulation was administered once by oral gavage. The dose volume was 5 mL/kg for all animals. The actual volume administered to each animal was calculated and adjusted based on the most recent body weight.
Blood samples (approximately 300 μL whole blood) at (1, 2, and 4 h) was collected from each animal via tail vein except for terminal blood samples. Terminal blood (6 h) samples were collected via cardiac puncture. All samples were collected into tubes containing lithium heparin (Multivette 600 LH-Gel, Sarstedt, Newton, N.C., USA). Following collection, the tubes were placed in refrigerator (maximum 30 minutes) or until centrifugation under refrigeration (at 2 to 8° C.) at 1500 g for approximately 15 minutes. Each harvested plasma sample was then transferred into 1.2 mL polypropylene tubes, on the 96-Well Plate according to the 96-Well Plate plasma sample map and kept in freezer. Plasma samples were then analyzed for test substances.
Brain samples were collected immediately after the animals were euthanized at designated time points. Brain samples were rinsed with saline, blotted dry, and weighed. Brain samples were placed into individual containers and kept in freezer (−20° C.). Brain samples were then analyzed for test articles.
After analysis, all the plasma results are reported as ng/mL and brain sample results are reported as ng/g. In the table below, “ND” stands for not determined and “NA” stands for not applicable.

[4] = brain, read-out: Brain concentration
[5] = plasma, read-out: Plasma concentration

Compound	IC50 [1] [nM]	IC50 [2] [nM]	concentration at 6 h [3, 4] [ng/g]	concentration at 6 h [3, 5] [ng/mL]	Kp at 6 h [3]
CCCCc1nc(-c2ccc(OC[C@H](O)CN(C)C)cc2)cn1-c1ccc(Oc2ccc(Cl)cc2)cc1 [Example 1, (R)-1-(4-{2-butyl-1-[4-(4-chloro-phenoxy)-phenyl]-1H-imidazol-4-yl}-phenoxy)-3-dimethylamino-propan-2-ol dihydrochloride]	660	850	626	18	34.1
CCCCc1nc(-c2ccc(OC[C@@H](O)CN(C)C)cc2)cn1-c1ccc(Oc2ccc(Cl)cc2)cc1 [Example 3, (S)-1-(4-{2-butyl-1-[4-(4-chloro-phenoxy)-phenyl]-1H-imidazol-4-yl}-phenoxy)-3-dimethylamino-propan-2-ol dihydrochloride]	840	800	1120	48	23.3
CCCCc1nc(-c2ccc(OC[C@H](O)CNC)cc2)cn1-c1ccc(Oc2ccc(Cl)cc2)cc1 [Example 9, (R)-1-(4-{2-butyl-1-[4-(4-chloro-phenoxy)-phenyl]-1H-imidazol-4-yl}-phenoxy)-3-methylamino-propan-2-ol dihydrochloride]	1130	1590	537	76	7.2
CCCCc1nc(-c2ccc(OC[C@@H](O)CNC)cc2)cn1-c1ccc(Oc2ccc(Cl)cc2)cc1 [Example 10, (S)-1-(4-{2-butyl-1-[4-(4-chloro-phenoxy)-phenyl]-1H-imidazol-4-yl}-phenoxy)-3-methylamino-propan-2-ol dihydrochloride]	1140	1320	212	74	2.9
CCCCc1nc(-c2ccc(OC[C@H](O)CNCC)cc2)cn1-c1ccc(Oc2ccc(Cl)cc2)cc1 [Example 11, (R)-1-(4-{2-butyl-1-[4-(4-chloro-phenoxy)-phenyl]-1H-imidazol-4-yl}-phenoxy)-3-ethylamino-propan-2-ol dihydrochloride]	810	1020	343	72	4.8
CCCCc1nc(-c2ccc(OC[C@@H](O)CNCC)cc2)cn1-c1ccc(Oc2ccc(Cl)cc2)cc1 [Example 12, (S)-1-(4-{2-butyl-1-[4-(4-chloro-phenoxy)-phenyl]-1H-imidazol-4-yl}-phenoxy)-3-ethylamino-propan-2-ol dihydrochloride]	980	1190	540	124	4.5
CCOCc1nc(-c2ccc(OC[C@H](O)CNC)cc2)cn1-c1ccc(Oc2ccc(Cl)cc2)cc1 [Example 13, (R)-1-(4-{1-[4-(4-chloro-phenoxy)-phenyl]-2-ethoxymethyl-1H-imidazol-4-yl}-phenoxy)-3-methylamino-propan-2-ol dihydrochloride]	4610	2160			
CCOCc1nc(-c2ccc(OC[C@@H](O)CNC)cc2)cn1-c1ccc(Oc2ccc(Cl)cc2)cc1 [Example 14, (S)-1-(4-{1-[4-(4-chloro-phenoxy)-phenyl]-2-ethoxymethyl-1H-imidazol-4-yl}-phenoxy)-3-methylamino-propan-2-ol dihydrochloride]	4560	2370			

Second part, the compound after the results:

IC50 [1] [nM]	IC50 [2] [nM]	concentration at 6 h [3, 4] [ng/g]	concentration at 6 h [3, 5] [ng/mL]	Kp at 6 h [3]	Compound
550	760	718	24	30.6	CCCCc1nc(-c2ccc(OC[C@H](O)CN(CC)CC)cc2)cn1-c1ccc(Oc2ccc(Cl)cc2)cc1 [Example 2, (R)-1-(4-{2-butyl-1-[4-(4-chloro-phenoxy)-phenyl]-1H-imidazol-4-yl}-phenoxy)-3-diethylamino-propan-2-ol dihydrochloride]
540	650	610	74	8.8	CCCCc1nc(-c2ccc(OC[C@@H](O)CN(CC)CC)cc2)cn1-c1ccc(Oc2ccc(Cl)cc2)cc1 [Example 4, (S)-1-(4-{2-butyl-1-[4-(4-chloro-phenoxy)-phenyl]-1H-imidazol-4-yl}-phenoxy)-3-diethylamino-propan-2-ol dihydrochloride]
710	1020	3320	200	16.7	CCOCc1nc(-c2ccc(OC[C@H](O)CN(C)C)cc2)cn1-c1ccc(Oc2ccc(Cl)cc2)cc1 [Example 5, (R)-1-(4-{1-[4-(4-chloro-phenoxy)-phenyl]-2-ethoxymethyl-1H-imidazol-4-yl}-phenoxy)-3-dimethylamino-propan-2-ol dihydrochloride]
770	780	3900	155	25.3	CCOCc1nc(-c2ccc(OC[C@@H](O)CN(C)C)cc2)cn1-c1ccc(Oc2ccc(Cl)cc2)cc1 [Example 6, (S)-1-(4-{1-[4-(4-chloro-phenoxy)-phenyl]-2-ethoxymethyl-1H-imidazol-4-yl}-phenoxy)-3-dimethylamino-propan-2-ol dihydrochloride]
1050	1170	1380	153	9.1	CCOCc1nc(-c2ccc(OC[C@H](O)CN(CC)CC)cc2)cn1-c1ccc(Oc2ccc(Cl)cc2)cc1 [Example 7, (R)-1-(4-{1-[4-(4-chloro-phenoxy)-phenyl]-2-ethoxymethyl-1H-imidazol-4-yl}-phenoxy)-3-diethylamino-propan-2-ol dihydrochloride]
800	1260	2700	137	19.6	CCOCc1nc(-c2ccc(OC[C@@H](O)CN(CC)CC)cc2)cn1-c1ccc(Oc2ccc(Cl)cc2)cc1 [Example 8, (S)-1-(4-{1-[4-(4-chloro-phenoxy)-phenyl]-2-ethoxymethyl-1H-imidazol-4-yl}-phenoxy)-3-diethylamino-propan-2-ol dihydrochloride]
3140	2470				CCNC[C@@H](O)COc1ccc(-c2cn(-c3ccc(Oc4ccc(Cl)cc4)cc3)c(COCC)n2)cc1 [Example 15, (R)-1-(4-{1-[4-(4-chloro-phenoxy)-phenyl]-2-ethoxymethyl-1H-imidazol-4-yl}-phenoxy)-3-ethylamino-propan-2-ol dihydrochloride]
3130	1550				CCNC[C@H](O)COc1ccc(-c2cn(-c3ccc(Oc4ccc(Cl)cc4)cc3)c(COCC)n2)cc1 [Example 16, (S)-1-(4-{1-[4-(4-chloro-phenoxy)-phenyl]-2-ethoxymethyl-1H-imidazol-4-yl}-phenoxy)-3-ethylamino-propan-2-ol dihydrochloride]
